Source: US7279600B2, “Hydroxy-biphenyl-carbaldehyde oxime derivatives and their use as estrogenic agents” (Wyeth, priority 2003, dated 2007)
Where a name gives a salt, the structure may show the parent alone.

What was measured:
[1] = biological target: ERβ (Homo sapiens, UniProt Q92731); test: biochemical
[2] = biological target: ERα (Homo sapiens, UniProt P03372); test: biochemical
Chain of ERα (P03372 whole entry): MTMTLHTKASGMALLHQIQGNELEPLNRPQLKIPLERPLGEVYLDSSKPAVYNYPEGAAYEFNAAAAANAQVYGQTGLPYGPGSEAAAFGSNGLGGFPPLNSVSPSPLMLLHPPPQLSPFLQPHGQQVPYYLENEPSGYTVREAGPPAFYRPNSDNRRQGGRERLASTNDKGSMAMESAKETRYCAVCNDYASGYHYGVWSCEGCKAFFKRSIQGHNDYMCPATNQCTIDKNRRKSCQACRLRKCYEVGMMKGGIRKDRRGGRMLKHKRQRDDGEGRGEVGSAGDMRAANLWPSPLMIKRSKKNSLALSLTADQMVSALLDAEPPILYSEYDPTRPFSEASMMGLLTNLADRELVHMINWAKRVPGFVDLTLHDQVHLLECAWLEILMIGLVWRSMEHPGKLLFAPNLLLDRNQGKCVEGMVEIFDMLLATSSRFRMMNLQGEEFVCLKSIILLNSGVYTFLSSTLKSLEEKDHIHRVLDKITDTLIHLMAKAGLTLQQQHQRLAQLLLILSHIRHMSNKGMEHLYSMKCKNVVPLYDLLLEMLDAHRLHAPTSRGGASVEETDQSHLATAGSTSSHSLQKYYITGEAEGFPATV

Chain of ERβ (Q92731 whole entry, species assumed): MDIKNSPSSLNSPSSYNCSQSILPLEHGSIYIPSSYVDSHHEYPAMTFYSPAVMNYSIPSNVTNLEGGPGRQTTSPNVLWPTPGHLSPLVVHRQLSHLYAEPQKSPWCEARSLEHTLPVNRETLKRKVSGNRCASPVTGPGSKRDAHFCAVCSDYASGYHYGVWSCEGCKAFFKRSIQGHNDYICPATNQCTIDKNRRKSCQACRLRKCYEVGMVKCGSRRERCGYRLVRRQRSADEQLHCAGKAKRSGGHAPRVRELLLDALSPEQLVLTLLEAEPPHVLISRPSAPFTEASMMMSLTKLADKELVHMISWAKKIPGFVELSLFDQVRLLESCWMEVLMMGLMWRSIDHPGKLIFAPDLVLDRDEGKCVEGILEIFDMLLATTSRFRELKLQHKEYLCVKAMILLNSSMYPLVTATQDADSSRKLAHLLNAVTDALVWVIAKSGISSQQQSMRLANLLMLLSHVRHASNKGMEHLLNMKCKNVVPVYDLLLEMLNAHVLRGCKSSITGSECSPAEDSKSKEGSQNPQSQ

Compound	melting point	IC50 [1]	IC50 [2]
O/N=C/c1ccc(-c2ccc(O)c(F)c2)c(Cl)c1Cl (as salt: salt) [Example 57, 2,3-Dichloro-3′-fluoro-4′-hydroxy-1,1′-biphenyl-4-carbaldehyde oxime]	225 to 227 °C	–	–
Cc1cc(-c2ccc(O)cc2)ccc1/C=N/O [Example 29, 4′-Hydroxy-3-methyl[1,1′-biphenyl]-4-carbaldehyde oxime]	195 to 197 °C	0.163 µM	3.19 µM
O/N=C/c1ccc(-c2ccc(O)cc2)cc1 [Example 30, 4′-Hydroxy[1,1′-biphenyl]-4-carbaldehyde oxime]	207 to 210 °C	3.84 µM	> 5 µM
O/N=C/c1ccc(-c2ccc(O)cc2)cc1Cl [Example 31, 3-Chloro-4′-hydroxy[1,1′-biphenyl]-4-carbaldehyde oxime]	187 to 189 °C	0.085 µM	1.54 µM
O/N=C/c1ccc(-c2ccc(O)cc2)c(F)c1 [Example 32, 2-Fluoro-4′-hydroxy-1,1′-biphenyl-4-carbaldehyde oxime]	178 to 180 °C	0.421 µM	3.45 µM
O/N=C/c1ccc(-c2ccc(O)cc2)cc1F [Example 33, 3-Fluoro-4′-hydroxy-1,1′-biphenyl-4-carbaldehyde oxime]	–	0.161 µM	1.72 µM
O/N=C/c1ccc(-c2ccc(O)cc2)c(Cl)c1 [Example 34, 2-Chloro-4′-hydroxy-1,1′-biphenyl-4-carbaldehyde oxime]	178 to 179 °C	0.098 µM	0.398 µM
COc1cc(-c2ccc(O)cc2)ccc1/C=N/O [Example 35, 4′-Hydroxy-3-methoxy-1,1′-biphenyl-4-carbaldehyde oxime]	228 to 230 °C	1.06 µM	7.99 µM
Cc1cc(/C=N/O)ccc1-c1ccc(O)cc1 [Example 36, 4′-Hydroxy-2-methyl-1,1′-biphenyl-4-carbaldehyde oxime]	169 to 171 °C	0.585 µM	2.82 µM
O/N=C/c1ccc(-c2ccc(O)c(F)c2)cc1Cl [Example 37, 3-Chloro-3′-fluoro-4′-hydroxy-1,1′-biphenyl-4-carbaldehyde oxime]	198 to 200 °C	0.054 µM	1.91 µM
O/N=C/c1ccc(-c2cc(F)c(O)c(F)c2)cc1Cl [Example 38, 3-Chloro-3′, 5′-fluoro-4′-hydroxy-1,1′-biphenyl-4-carbaldehyde oxime]	216 to 219 °C	0.268 µM	> 7 µM
Cc1cc(O)ccc1-c1ccc(/C=N/O)c(Cl)c1 [Example 39, 3-Chloro-4′-hydroxy-2′-methyl-1,1′-biphenyl-4-carbaldehyde oxime]	169 to 171 °C	0.027 µM	0.174 µM
O/N=C/c1c(Cl)cc(-c2ccc(O)cc2)cc1Cl [Example 54, 3,5-Dichloro-4′-hydroxy-1,1′-biphenyl-4-carbaldehyde oxime]	183 to 186 °C	0.008 µM	0.064 µM
O/N=C/c1c(Cl)cc(-c2ccc(O)c(F)c2)cc1Cl [Example 55, 3,5-Dichloro-3′-fluoro-4′-hydroxy-1,1′-biphenyl-4-carbaldehyde oxime]	185 to 190 °C	–	–
O/N=C/c1ccc(-c2ccc(O)cc2)c(Cl)c1Cl [Example 56, 2,3-Dichloro-4′-hydroxy-1,1′-biphenyl-4-carbaldehyde oxime]	208 to 210 °C	0.049 µM	0.851 µM
O/N=C/c1ccc(-c2ccc(O)c(F)c2)c(Cl)c1Cl [Example 57, 2,3-Dichloro-3′-fluoro-4′-hydroxy-1,1′-biphenyl-4-carbaldehyde oxime]	–	0.081 µM	1.96 µM
